Patent publication US20240393292A1, “ALLERGY ANTIGEN AND EPITOPE THEREOF” (HOYU CO., LTD., priority 2019, published 2024)

Tested on: IgE antibody present in the serum of a wheat-allergic patient
Experiment: Wheat epitope mapping (1): peptide array of overlapping 15-amino-acid peptides, chemiluminescence
Assay type: binding, human
Details: bound = chemiluminescence value minus N2nd value of 5 non-wheat-allergic subjects at least 35,000; serum of 49 patients
Procedure: Epitope mapping was carried out using a library of overlapping peptides (length: 15 amino acids) corresponding to the amino acid sequences identified as allergy components of wheat. Specifically, the library of overlapping peptides was prepared on the basis of the amino acid sequences of SEQ ID NOs: 2, 4, 6, 8, 10, 12, 14, 16, 18, 20, 22, 24, 26 and 28.
The peptides to be synthesized were shifted by 10 amino acids.
For preparation of peptide arrays, the Intavis CelluSpots™ technique was used. Specifically, the peptide arrays were prepared by the following procedure: (1) synthesizing peptides of interest on amino-modified cellulose disks using an automated chemical synthesis apparatus (Intavis MultiPep RS), (2) dissolving the amino-modified cellulose disks to obtain a cellulose-bound peptide solution, and (3) spotting the cellulose-bound peptides onto coated glass slides. The details of each procedure are as described below.
Peptide synthesis was carried out in incremental steps through 9-fluorenylmethoxycarbonyl (Fmoc) chemical reaction on amino-modified cellulose disks in 384-well synthesis plates. Specifically, amino acids in which a Fmoc group is bonded to an amino group were activated in a solution of N,N′-diisopropylcarbodiimide (DIC) and 1-hydroxybenzotriazole (HOBt) in dimethylformamide (DMF) and added dropwise to the cellulose disks so that the Fmoc group-bound amino acids were bound to the amino groups on the cellulose disks (coupling). Unreacted amino groups were capped with acetic anhydride and washed with DMF. Furthermore, the Fmoc groups were eliminated from the amino groups of the amino acids bound to the amino groups on the cellulose disks by treatment with piperidine and washing with DMF. The amino acids bound to the amino groups on the cellulose disks were repetitively subjected to the coupling, the capping, and the Fmoc group elimination described above to elongate the amino terminus for peptide synthesis.
The peptides-bound cellulose disks of interest obtained above in the subsection titled “(1) Synthesis of peptide” were transferred to 96-well plates and treated with a side chain deprotection mixed solution of trifluoroacetic acid (TFA), dichloromethane, triisopropylsilane (TIPS), and water for deprotection of amino acid side chains. Then, the deprotected cellulose-bound peptides were dissolved in a mixed solution of TFA, […] acid (TFMSA), TIPS, and water and precipitated in […] methyl ether (TBME), and the precipitate was resuspended in dimethyl sulfoxide (DMSO) and mixed with a mixed solution of NaCl, sodium citrate, and water to obtain a peptide solution for slide spotting.
The peptide solution for slide spotting obtained above in the subsection titled “(2) Dissolution of amino-modified cellulose disk” was spotted onto Intavis CelluSpots™ slides using Intavis Slide Spotting Robot, and the slides were dried to prepare peptide arrays.
The presence or absence of binding, to each peptide fragment, of an IgE antibody present in the serum of a wheat-allergic patient was measured through antigen-antibody reaction using the peptide arrays. […]

Row | binding of patient-specific IgE antibodies to 15-residue peptide | Substance
1 | confirmed to bind | SEQ ID NO: 191: common 15-residue epitope sequence of polypeptide (E3) (SQQQQPFPQQQQPLL; REGION 1..15: note = epitope)
2 | confirmed to bind | SEQ ID NO: 346: common 15-residue epitope sequence of polypeptide (E5) (PQQSFPQQQRPFIQP; REGION 1..15: note = epitope)
3 | confirmed to bind | SEQ ID NO: 414: common 15-residue epitope sequence of polypeptide (E6) (KWRAVLKIGATEPSQ; REGION 1..15: note = epitope)
4 | confirmed to bind | SEQ ID NO: 562: common 15-residue epitope sequence of polypeptide (E8) (KPSQQQPLPLQQILW; REGION 1..15: note = epitope)
5 | confirmed to bind | SEQ ID NO: 899: common 15-residue epitope sequence of polypeptide (E12) (LGQQQQQFPGQQQPF; REGION 1..15: note = epitope)
6 | confirmed to bind | SEQ ID NO: 1010: common 15-residue epitope sequence of polypeptide (E14) (WLQQQLVPQLQQPLS; REGION 1..15: note = epitope)
7 | confirmed to bind | SEQ ID NO: 1209: common 15-residue epitope sequence of polypeptide (E18) (PIQQQPQPFPQQPPC; REGION 1..15: note = epitope)
8 | confirmed to bind | SEQ ID NO: 1297: common 15-residue epitope sequence of polypeptide (E20) (SINVENVEDNRRALR; REGION 1..15: note = epitope)
9 | confirmed to bind | SEQ ID NO: 1367: common 15-residue epitope sequence of polypeptide (E21) (KPWQQQPLPPQQQPP; REGION 1..15: note = epitope)
10 | confirmed to bind | SEQ ID NO: 1508: common 15-residue epitope sequence of polypeptide (E23) (QVPLVQQQQFLGQQQ; REGION 1..15: note = epitope)
11 | confirmed to bind | SEQ ID NO: 1566: common 15-residue epitope sequence of polypeptide (E24) (PQQPQQPFPQTQQPQ; REGION 1..15: note = epitope)
12 | confirmed to bind | SEQ ID NO: 1598: common 15-residue epitope sequence of polypeptide (E25) (PQQPAQLEAIRSLVL; REGION 1..15: note = epitope)
13 | confirmed to bind | SEQ ID NO: 1685: common 15-residue epitope sequence of polypeptide (E27) (PAKEAANFTSQVIIM; REGION 1..15: note = epitope)
14 | confirmed to bind | SEQ ID NO: 1895: common 15-residue epitope sequence of polypeptide (E31) (QVPLVQQQQFPGQQQ; REGION 1..15: note = epitope)
15 | confirmed to bind | SEQ ID NO: 1977: common 15-residue epitope sequence of polypeptide (E32) (DPTGAKVTKAAIKKK; REGION 1..15: note = epitope)
16 | confirmed to bind | SEQ ID NO: 2004: common 15-residue epitope sequence of polypeptide (E33) (STGTIGKRFASINVE; REGION 1..15: note = epitope)
17 | confirmed to bind | SEQ ID NO: 2027: common 15-residue epitope sequence of polypeptide (E34) (TPGALQYLSGVILFE; REGION 1..15: note = epitope)

The next lines start with the substance.

Row | Substance | binding of patient-specific IgE antibodies to 15-residue peptide
18 | SEQ ID NO: 29: common 15-residue epitope sequence of polypeptide (E1) (QQILWYHQQQPIQQQ; REGION 1..15: note = epitope) | confirmed to bind
19 | SEQ ID NO: 131: common 15-residue epitope sequence of polypeptide (E2) (PPFPQQHQQFPQQQI; REGION 1..15: note = epitope) | confirmed to bind
20 | SEQ ID NO: 281: common 15-residue epitope sequence of polypeptide (E4) (QQPQQPFPQQQQPLI; REGION 1..15: note = epitope) | confirmed to bind
21 | SEQ ID NO: 493: common 15-residue epitope sequence of polypeptide (E7) (PQQPYPQQQPQYLQP; REGION 1..15: note = epitope) | confirmed to bind
22 | SEQ ID NO: 640: common 15-residue epitope sequence of polypeptide (E9) (QVPLVQQQQFPGQQQ; REGION 1..15: note = epitope) | confirmed to bind
23 | SEQ ID NO: 706: common 15-residue epitope sequence of polypeptide (E10) (VILFEETLYQSTKGG; REGION 1..15: note = epitope) | confirmed to bind
24 | SEQ ID NO: 776: common 15-residue epitope sequence of polypeptide (E11) (QPYPQPQPFPSQQPY; REGION 1..15: note = epitope) | confirmed to bind
25 | SEQ ID NO: 974: common 15-residue epitope sequence of polypeptide (E13) (QPFPQQQQPIIILQQ; REGION 1..15: note = epitope) | confirmed to bind
26 | SEQ ID NO: 1089: common 15-residue epitope sequence of polypeptide (E15) (STKGGKPFVDILKAG; REGION 1..15: note = epitope) | confirmed to bind
27 | SEQ ID NO: 1142: common 15-residue epitope sequence of polypeptide (E16) (TEPSQLSIDQNAQGL; REGION 1..15: note = epitope) | confirmed to bind
28 | SEQ ID NO: 1166: common 15-residue epitope sequence of polypeptide (E17) (PGQQQQFPPQQPYPQ; REGION 1..15: note = epitope) | confirmed to bind
29 | SEQ ID NO: 1257: common 15-residue epitope sequence of polypeptide (E19) (SSLVSMILPRSDCKV; REGION 1..15: note = epitope) | confirmed to bind
30 | SEQ ID NO: 1403: common 15-residue epitope sequence of polypeptide (E22) (QYLQPQQPISQQQAQ; REGION 1..15: note = epitope) | confirmed to bind
31 | SEQ ID NO: 1608: common 15-residue epitope sequence of polypeptide (E26) (VGYNPDKVPFVPISG; REGION 1..15: note = epitope) | confirmed to bind
32 | SEQ ID NO: 1753: common 15-residue epitope sequence of polypeptide (E28) (VKEVSSYLKKVGYNP; REGION 1..15: note = epitope) | confirmed to bind
33 | SEQ ID NO: 1789: common 15-residue epitope sequence of polypeptide (E29) (SGKELEALPKFLKNG; REGION 1..15: note = epitope) | confirmed to bind
34 | SEQ ID NO: 1836: common 15-residue epitope sequence of polypeptide (E30) (VIAEYTVRTLQRTVP; REGION 1..15: note = epitope) | confirmed to bind
